Laboratory results from US10525041B2, “Fluoroalkyl-substituted aryltriazole derivatives and uses thereof” (BAYER PHARMA AKTIENGESELLSCHAFT, priority 2016, dated 2020).
pIC50: −log10 of the molar value.

Assays:
human V1a receptor = target: T1, human V1a receptor (Homo sapiens, UniProt P37288); experiment: Cellular in vitro assay for vasopressin receptor activity, V1a cell line (aequorin luminescence); format: cell-based; settings: for pIC50: CHO cell line transfected with human V1a receptor, agonist [Arg8]-vasopressin at EC50 concentration, read-out: IC50hV1a; for ratio IC50 hV2/hV1a: ratio of the IC50 on human V2 to the IC50 on human V1a
T1 construct: expressed in transfected cells; host or cells: CHO K1 (ATCC), also stably transfected with a modified aequorin
T1 sequence (P37288 whole entry): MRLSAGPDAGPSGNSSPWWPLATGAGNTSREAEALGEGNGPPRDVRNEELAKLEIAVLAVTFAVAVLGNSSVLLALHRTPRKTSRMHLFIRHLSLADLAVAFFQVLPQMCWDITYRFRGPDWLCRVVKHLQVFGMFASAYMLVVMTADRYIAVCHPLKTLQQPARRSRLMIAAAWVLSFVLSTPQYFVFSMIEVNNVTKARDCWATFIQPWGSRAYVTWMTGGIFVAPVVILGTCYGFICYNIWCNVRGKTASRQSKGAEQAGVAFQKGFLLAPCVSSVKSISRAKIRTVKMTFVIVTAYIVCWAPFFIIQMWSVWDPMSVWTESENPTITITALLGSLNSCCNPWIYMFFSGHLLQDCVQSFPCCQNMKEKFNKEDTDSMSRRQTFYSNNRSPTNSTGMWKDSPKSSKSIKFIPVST
Protocol: (§1) B-1. Cellular In Vitro Assay for Determining Vasopressin Receptor Activity
(§2) The identification of agonists and antagonists of the V1a and V2 vasopressin receptors from humans, rats and dogs as well as the quantification of the activity of the compounds of the invention is carried out using recombinant cell lines. These cell lines originally derive from a hamster's ovary epithelial cell (Chinese Hamster Ovary, CHO K1, ATCC: American Type Culture Collection, Manassas, Va. 20108, USA). The test cell lines constitutively express the human, rat or dog V1a or V2 receptors. In case of the Gαq-coupled V1a receptors, cells are also stably transfected with a modified form of the calcium-sensitive photoproteins aequorin (human and rat V1a) or obelin (dog V1a), which, after reconstitution with the cofactor coelenterazine, emit light when there are increases in free calcium concentrations [Rizzuto R, Simpson A W, Brini M, Pozzan T, Nature 358, 325-327 (1992); Illarionov B A, Bondar V S, Illarionova V A, Vysotski E S, Gene 153 (2), 273-274 (1995)]. The resulting vasopressin receptor cells react to stimulation of the recombinantly expressed V1a receptors by intracellular release of calcium ions, which can be quantified by the resulting photoprotein luminescence. The Gs-coupled V2 receptors are stably transfected into cell lines expressing the gene for firefly luciferase under control of a CRE-responsible promoter. Activation of V2 receptors induces the activation of the CRE-responsive promoter via cAMP increase, thereby inducing the expression of firefly luciferase. The light emitted by photoproteins of V1a cell lines as well as the light emitted by firefly luciferase of V2 cell lines corresponds to the activation or inhibition of the respective vasopressin receptor. The bioluminescence of the cell lines is detected using a suitable luminometer [Milligan G, Marshall F, Rees S, Trends in Pharmacological Sciences 17, 235-237 (1996)].
Vasopressin V1a Receptor Cell Lines:
On the day before the assay, the cells are plated out in culture medium (DMEM/F12, 2% FCS, 2 mM glutamine, 10 mM HEPES, 5 μg/ml coelenterazine) in 384-well microtiter plates and kept in a cell incubator (96% humidity, 5% v/v CO2, 37° C.). On the day of the assay, test compounds in various concentrations are placed for 10 minutes in the wells of the microtiter plate before the agonist [Arg^8]-vasopressin at EC50 concentration is added. The resulting light signal is measured immediately in a luminometer.
(§3) Table 1A below lists individual IC50 values for the compounds of the invention (including racemic mixtures as well as separated enantiomers) that were obtained from cell lines transfected with the human V1a or V2 receptor: […]

human V2 receptor = target: T2, human V2 receptor (Homo sapiens, UniProt P30518); experiment: Cellular in vitro assay for vasopressin receptor activity, V2 cell line (CRE-luciferase); format: cell-based; settings: CHO cell line transfected with human V2 receptor; agonist [Arg8]-vasopressin at EC50 concentration, 3 hours; read-out: IC50hV2
T2 construct: expressed in transfected cells; host or cells: CHO K1 (ATCC) line expressing firefly luciferase under a CRE-responsive promoter
T2 sequence (P30518 whole entry): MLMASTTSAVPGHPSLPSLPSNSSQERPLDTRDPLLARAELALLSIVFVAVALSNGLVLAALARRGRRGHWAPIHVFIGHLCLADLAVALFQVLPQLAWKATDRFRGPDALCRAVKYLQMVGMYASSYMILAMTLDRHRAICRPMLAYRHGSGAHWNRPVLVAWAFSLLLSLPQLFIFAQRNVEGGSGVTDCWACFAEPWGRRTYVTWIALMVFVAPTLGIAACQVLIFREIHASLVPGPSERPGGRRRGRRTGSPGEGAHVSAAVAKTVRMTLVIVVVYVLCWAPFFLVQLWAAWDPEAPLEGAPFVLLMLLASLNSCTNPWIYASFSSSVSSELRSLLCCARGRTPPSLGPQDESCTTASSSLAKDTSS
Protocol: as §1, §2
Vasopressin V2 Receptor Cell Lines:
On the day before the assay, the cells are plated out in culture medium (DMEM/F12, 2% FCS, 2 mM glutamine, 10 mM HEPES) in 384-well microtiter plates and kept in a cell incubator (96% humidity, 5% v/v CO2, 37° C.). On the day of the assay, test compounds in various concentrations and the agonist [Arg^8]-vasopressin at EC50 concentration are added together to the wells, and plates are incubated for 3 hours in a cell incubator. Upon addition of the cell lysis reagent Triton™ and the substrate luciferin, luminescence of firefly luciferase is measured in a luminometer.
as §3

Row | Compound | pIC50 (human V1a receptor) | ratio IC50 hV2/hV1a (human V1a receptor) | pIC50 (human V2 receptor)
1 | CC(F)c1nc(Cn2nc(-c3ccc(Cl)cc3)n(C[C@H](O)C(F)(F)F)c2=O)nn1-c1ccccc1C#N (single isomer, unassigned) [Example 40] | 7.55 | 14.7 | 6.38
2 | CCc1ccccc1-n1nc(Cn2nc(-c3ccc(Cl)cc3)n(C[C@H](O)C(F)(F)F)c2=O)nc1C(C)F (single isomer, unassigned) [Example 30] | 8.73 | 1.0 | 8.72
3 | CC(F)c1nc(Cn2nc(-c3ccc(Cl)cc3)n(C[C@H](O)C(F)(F)F)c2=O)nn1-c1ccccc1Cl (mixture of isomers) [Example 1, 5-(4-Chlorophenyl)-2-({1-(2-chlorophenyl)-5-[1-fluoroethyl]-1H-1,2,4-triazol-3-yl}methyl)-4-[(2S)-3,3,3-trifluoro-2-hydroxypropyl]-2,4-dihydro-3H-1,2,4-triazol-3-one] | 9.46 | 2.0 | 9.15
4 | Cc1ccccc1-n1nc(Cn2nc(-c3ccc(Cl)cc3)n(C[C@H](O)C(F)(F)F)c2=O)nc1C(C)F (single isomer, unassigned) [Example 35] | 9.44 | 0.5 | 9.77
5 | CC(F)c1nc(Cn2nc(-c3ccc(Cl)cc3)n(C[C@H](O)C(F)(F)F)c2=O)nn1-c1ccccc1C(F)(F)F (mixture of isomers) [Example 22, 5-(4-Chlorophenyl)-2-({5-[1-fluoroethyl]-1-[2-(trifluoromethyl)phenyl]-1H-1,2,4-triazol-3-yl}methyl)-4-[(2S)-3,3,3-trifluoro-2-hydroxypropyl]-2,4-dihydro-3H-1,2,4-triazol-3-one] | 8.41 | 3.5 | 7.87
6 | CC(F)c1nc(Cn2nc(-c3ccc(Cl)cc3)n(C[C@H](O)C(F)(F)F)c2=O)nn1-c1cnccc1C(F)(F)F (single isomer, unassigned) [Example 8] | 8.90 | 15.8 | 7.70
7 | CC(F)c1nc(Cn2nc(-c3ccc(Cl)cc3)n(C[C@H](O)C(F)(F)F)c2=O)nn1-c1cccc(Cl)c1 (single isomer, unassigned) [Example 17] | 8.03 | 0.0 | 9.60
8 | CC(F)c1nc(Cn2nc(-c3ccc(Cl)cc3)n(C[C@H](O)C(F)(F)F)c2=O)nn1-c1ccccc1S(N)(=O)=O (mixture of isomers) [Example 41, 2-{3-({3-(4-Chlorophenyl)-5-oxo-4-[(2S)-3,3,3-trifluoro-2-hydroxypropyl]-4,5-dihydro-1H-1,2,4-triazol-1-yl}methyl)-5-[1-fluoroethyl]-1H-1,2,4-triazol-1-yl}benzenesulfonamide] | 7.07 | 3.5 | 6.53

Now from value to compound:

Row | pIC50 (human V1a receptor) | ratio IC50 hV2/hV1a (human V1a receptor) | pIC50 (human V2 receptor) | Compound
9 | 7.97 | 0.5 | 8.23 | O=c1n(Cc2nc(C(F)F)n(-c3cccc(F)c3)n2)nc(-c2ccc(Cl)cc2)n1C[C@H](O)C(F)(F)F [Example 52, 5-(4-Chlorophenyl)-2-{[5-(difluoromethyl)-1-(3-fluorophenyl)-1H-1,2,4-triazol-3-yl]methyl}-4-[(2S)-3,3,3-trifluoro-2-hydroxypropyl]-2,4-dihydro-3H-1,2,4-triazol-3-one]
10 | 8.53 | 2.3 | 8.16 | CC(F)(F)c1nc(Cn2nc(-c3ccc(Cl)cc3)n(C[C@H](O)C(F)(F)F)c2=O)nn1-c1c(F)cccc1Cl [Example 69, 2-{[1-(2-Chloro-6-fluorophenyl)-5-(1,1-difluoroethyl)-1H-1,2,4-triazol-3-yl]methyl}-5-(4-chlorophenyl)-4-[(2S)-3,3,3-trifluoro-2-hydroxypropyl]-2,4-dihydro-3H-1,2,4-triazol-3-one]
11 | 7.51 | 1.1 | 7.46 | CC(C)c1ccccc1-n1nc(Cn2nc(-c3ccc(Cl)cc3)n(C[C@H](O)C(F)(F)F)c2=O)nc1C(C)(F)F [Example 72, 5-(4-Chlorophenyl)-2-({5-(1,1-difluoroethyl)-1-[2-(propan-2-yl)phenyl]-1H-1,2,4-triazol-3-yl}methyl)-4-[(2S)-3,3,3-trifluoro-2-hydroxypropyl]-2,4-dihydro-3H-1,2,4-triazol-3-one]
12 | 8.76 | 6.7 | 7.94 | CC(F)(F)c1nc(Cn2nc(-c3ccc(Cl)cc3)n(C[C@H](O)C(F)(F)F)c2=O)nn1-c1ccccc1C(F)(F)F [Example 60, 5-(4-Chlorophenyl)-2-({5-(1,1-difluoroethyl)-1-[2-(trifluoromethyl)phenyl]-1H-1,2,4-triazol-3-yl}methyl)-4-[(2S)-3,3,3-trifluoro-2-hydroxypropyl]-2,4-dihydro-3H-1,2,4-triazol-3-one]
13 | 8.69 | 1.5 | 8.51 | CC(F)c1nc(Cn2nc(-c3ccc(Cl)cc3)n(C[C@H](O)C(F)(F)F)c2=O)nn1-c1c(Cl)cccc1Cl (mixture of isomers) [Example 43, 5-(4-Chlorophenyl)-2-({1-(2,6-dichlorophenyl)-5-[1-fluoroethyl]-1H-1,2,4-triazol-3-yl}methyl)-4-[(2S)-3,3,3-trifluoro-2-hydroxypropyl]-2,4-dihydro-3H-1,2,4-triazol-3-one]
14 | 8.74 | 4.4 | 8.11 | CCOc1ccccc1-n1nc(Cn2nc(-c3ccc(Cl)cc3)n(C[C@H](O)C(F)(F)F)c2=O)nc1C(C)(F)F [Example 67, 5-(4-Chlorophenyl)-2-{[5-(1,1-difluoroethyl)-1-(2-ethoxyphenyl)-1H-1,2,4-triazol-3-yl]methyl}-4-[(2S)-3,3,3-trifluoro-2-hydroxypropyl]-2,4-dihydro-3H-1,2,4-triazol-3-one]
15 | 9.11 | 3.3 | 8.59 | O=c1n(Cc2nc(C(F)(F)F)n(-c3ccccc3Cl)n2)nc(-c2ccc(Cl)cc2)n1C[C@H](O)C(F)(F)F [Example 79, 5-(4-Chlorophenyl)-2-{[1-(2-chlorophenyl)-5-(trifluoromethyl)-1H-1,2,4-triazol-3-yl]methyl}-4-[(2S)-3,3,3-trifluoro-2-hydroxypropyl]-2,4-dihydro-3H-1,2,4-triazol-3-one]
16 | 8.85 | 5.0 | 8.15 | O=c1n(Cc2nc(C(F)(F)C3CCOCC3)n(-c3ccccc3Cl)n2)nc(-c2ccc(Cl)cc2)n1C[C@H](O)C(F)(F)F [Example 77, 5-(4-Chlorophenyl)-2-({1-(2-chlorophenyl)-5-[difluoro(tetrahydro-2H-pyran-4-yl)methyl]-1H-1,2,4-triazol-3-yl}methyl)-4-[(2S)-3,3,3-trifluoro-2-hydroxypropyl]-2,4-dihydro-3H-1,2,4-triazol-3-one]
17 | 9.04 | 3.5 | 8.50 | NCC(F)(F)c1nc(Cn2nc(-c3ccc(Cl)cc3)n(C[C@H](O)C(F)(F)F)c2=O)nn1-c1ccccc1Cl.O=CO [Example 76, 2-{[5-(2-Amino-1,1-difluoroethyl)-1-(2-chlorophenyl)-1H-1,2,4-triazol-3-yl]methyl}-5-(4-chlorophenyl)-4-[(2S)-3,3,3-trifluoro-2-hydroxypropyl]-2,4-dihydro-3H-1,2,4-triazol-3-one]
18 | 8.83 | 1.5 | 8.66 | O=c1n(Cc2nc(C(F)F)n(-c3ccccc3Cl)n2)nc(-c2ccc(Cl)cc2)n1C[C@H](O)C(F)(F)F [Example 51, 5-(4-Chlorophenyl)-2-{[1-(2-chlorophenyl)-5-(difluoromethyl)-1H-1,2,4-triazol-3-yl]methyl}-4-[(2S)-3,3,3-trifluoro-2-hydroxypropyl]-2,4-dihydro-3H-1,2,4-triazol-3-one]
